# In ChEMBL document CHEMBL1255419, “Pharmacokinetic-pharmacodynamic assessment of faropenem in a lethal murine Bacillus anthracis inhalation postexposure prophylaxis model” (Antimicrob Agents Chemother, 2010):
# Calls of active or inactive are those of the source. No cut-off for these calls is given here.
# What was measured:
# Bacillus anthracis [1] = assay: Antibacterial activity against Bacillus anthracis Ames infected in BALB/c mouse assessed as survival rate at 10 mg/kg, ip administered 24 hrs postinfection at 6 hrs interval for 14 days measured on day 27; type: functional; settings: route intraperitoneal
# Bacillus anthracis [2] = assay: microbe, parasite or virus in culture; type: functional
# Bacillus anthracis [3] = assay: Antibacterial activity against Bacillus anthracis Ames infected in BALB/c mouse assessed as survival rate at 40 mg/kg, ip administered 24 hrs postinfection at 12 hrs interval for 14 days measured on day 27; type: functional; settings: route intraperitoneal
# Homo sapiens [4] = organism: Homo sapiens; assay: Plasma protein binding in human at 1000 ug/ml by ultrafiltration technique; settings: read-out: PPB (converted)
# Bacillus anthracis [5] = assay: microbe, parasite or virus in culture; type: functional; remark: listed apart in the source
# Bacillus anthracis [6] = assay: microbe, parasite or virus in culture; type: functional; remark: listed apart in the source
# Bacillus anthracis [7] = assay: microbe, parasite or virus in culture; type: functional; remark: listed apart in the source
# Bacillus anthracis [8] = assay: Antibacterial activity against Bacillus anthracis Ames infected in BALB/c mouse assessed as survival rate at 20 mg/kg, ip administered 24 hrs postinfection at 6 hrs interval for 14 days measured on day 27; type: functional; settings: route intraperitoneal
# Bacillus anthracis [9] = assay: f%TMIC in Bacillus anthracis Ames infected pharmacokinetic-pharmacodynamic model at 0.12 ug/ml; type: functional
# [10] = f%TMIC in ip dosed Bacillus anthracis Ames infected BALB/c mouse model at ED50 administered 24 hrs postinfection at 4 hrs interval for 14 days measured on day 27; type: functional
# Bacillus anthracis [11] = assay: microbe, parasite or virus in culture; type: functional; remark: listed apart in the source
# Bacillus anthracis [12] = assay: microbe, parasite or virus in culture; type: functional; remark: listed apart in the source
# Bacillus anthracis [13] = assay: Antibacterial activity against Bacillus anthracis Ames infected in BALB/c mouse assessed as survival rate at 80 mg/kg, ip administered 24 hrs postinfection at 4 hrs interval for 14 days measured on day 27; type: functional; settings: route intraperitoneal
# Bacillus anthracis [14] = assay: Antibacterial activity against Bacillus anthracis Ames infected in BALB/c mouse assessed as survival rate at 40 mg/kg, ip administered 24 hrs postinfection at 6 hrs interval for 14 days measured on day 27; type: functional; settings: route intraperitoneal
# Bacillus anthracis [15] = assay: microbe, parasite or virus in culture; type: functional; remark: listed apart in the source
# Bacillus anthracis [16] = assay: Antibacterial activity against Bacillus anthracis Ames infected in BALB/c mouse assessed as survival rate at 10 mg/kg, ip administered 24 hrs postinfection at 4 hrs interval for 14 days measured on day 27; type: functional; settings: route intraperitoneal
# Bacillus anthracis [17] = assay: microbe, parasite or virus in culture; type: functional; remark: listed apart in the source
# Bacillus anthracis [18] = assay: microbe, parasite or virus in culture; type: functional; remark: listed apart in the source
# Bacillus anthracis [19] = assay: microbe, parasite or virus in culture; type: functional; remark: listed apart in the source
# Streptococcus pneumoniae [20] = assay: f%TMIC in Streptococcus pneumoniae infected pharmacokinetic-pharmacodynamic model; type: functional
# [21] = f%TMIC in ip dosed Bacillus anthracis Ames infected BALB/c mouse model at ED99 administered 24 hrs postinfection at 4 hrs interval for 14 days measured on day 27; type: functional
# Bacillus anthracis [22] = assay: microbe, parasite or virus in culture; type: functional; remark: listed apart in the source
# Bacillus anthracis [23] = assay: f%TMIC in Bacillus anthracis Ames infected pharmacokinetic-pharmacodynamic model at 0.5 ug/ml; type: functional
# Streptococcus pneumoniae [24] = assay: Antibacterial activity against Streptococcus pneumoniae clinical isolates; type: functional
# Bacillus anthracis [25] = assay: microbe, parasite or virus in culture; type: functional; remark: listed apart in the source
# [26] = f%TMIC in Bacillus anthracis Ames infected human model at 600 […], BID; type: functional
# Bacillus anthracis [27] = assay: microbe, parasite or virus in culture; type: functional; remark: listed apart in the source
# Bacillus anthracis [28] = assay: Antibacterial activity against Bacillus anthracis Ames infected in BALB/c mouse assessed as survival rate at 80 mg/kg, ip administered 24 hrs postinfection at 6 hrs interval for 14 days measured on day 27; type: functional; settings: route intraperitoneal
# Bacillus anthracis [29] = assay: Antibacterial activity against Bacillus anthracis Ames infected in BALB/c mouse assessed as decrease in bacterial load in lungs at 20 mg/kg, ip administered 24 hrs postinfection at 4 hrs interval for 14 days measured on day 27; type: functional, organism-based; design: dose 20 mg/kg
# Bacillus anthracis [30] = assay: microbe, parasite or virus in culture; type: functional; remark: listed apart in the source
# Bacillus anthracis [31] = assay: Antibacterial activity against Bacillus anthracis Ames infected in BALB/c mouse assessed as survival rate at 80 mg/kg, ip administered 24 hrs postinfection at 12 hrs interval for 14 days measured on day 27; type: functional; settings: route intraperitoneal
# Bacillus anthracis [32] = assay: microbe, parasite or virus in culture; type: functional; remark: listed apart in the source
# Bacillus anthracis [33] = assay: microbe, parasite or virus in culture; type: functional; remark: listed apart in the source
# Bacillus anthracis [34] = assay: microbe, parasite or virus in culture; type: functional; remark: listed apart in the source
# Bacillus anthracis [35] = assay: microbe, parasite or virus in culture; type: functional; remark: listed apart in the source
# Homo sapiens [36] = organism: Homo sapiens; assay: Plasma protein binding in human at 5 ug/ml by ultrafiltration technique; settings: read-out: PPB (converted)
# Bacillus anthracis [37] = assay: microbe, parasite or virus in culture; type: functional; remark: listed apart in the source
# [38] = f%TMIC in ip dosed Bacillus anthracis Ames infected BALB/c mouse model at ED90 administered 24 hrs postinfection at 4 hrs interval for 14 days measured on day 27; type: functional
# Bacillus anthracis [39] = assay: Antibacterial activity against Bacillus anthracis Ames infected in BALB/c mouse assessed as survival rate at 40 mg/kg, ip administered 24 hrs postinfection at 4 hrs interval for 14 days measured on day 27; type: functional; settings: route intraperitoneal
# Bacillus anthracis [40] = assay: microbe, parasite or virus in culture; type: functional; remark: listed apart in the source
# Bacillus anthracis [41] = assay: f%TMIC in Bacillus anthracis Ames infected pharmacokinetic-pharmacodynamic model at 0.25 ug/ml; type: functional
# Bacillus anthracis [42] = assay: Antibacterial activity against Bacillus anthracis Ames infected in BALB/c mouse assessed as survival rate at 10 mg/kg, ip administered 24 hrs postinfection at 12 hrs interval for 14 days measured on day 27; type: functional; settings: route intraperitoneal
# [43] = Plasma protein binding in CD1 mouse at 1000 ug/ml by ultrafiltration technique; type: ADME, cell-free; settings: read-out: PPB (converted)
# Bacillus anthracis [44] = assay: Antibacterial activity against Bacillus anthracis Ames infected in BALB/c mouse assessed as survival rate at 20 mg/kg, ip administered 24 hrs postinfection at 12 hrs interval for 14 days measured on day 27; type: functional; settings: route intraperitoneal
# Bacillus anthracis [45] = assay: Antibacterial activity against Bacillus anthracis Ames infected in BALB/c mouse assessed as survival rate at 20 mg/kg, ip administered 24 hrs postinfection at 4 hrs interval for 14 days measured on day 27; type: functional; settings: route intraperitoneal
# Bacillus anthracis [46] = assay: microbe, parasite or virus in culture; type: functional; remark: listed apart in the source
# Bacillus anthracis [47] = assay: microbe, parasite or virus in culture; type: functional; remark: listed apart in the source
# Bacillus anthracis [48] = assay: microbe, parasite or virus in culture; type: functional; remark: listed apart in the source
# Bacillus anthracis [49] = assay: microbe, parasite or virus in culture; type: functional; remark: listed apart in the source
# Bacillus anthracis [50] = assay: microbe, parasite or virus in culture; type: functional; remark: listed apart in the source
# Bacillus anthracis [51] = assay: microbe, parasite or virus in culture; type: functional; remark: listed apart in the source
# [52] = Plasma protein binding in CD1 mouse at 5 ug/ml by ultrafiltration technique; type: ADME, cell-free; settings: read-out: PPB (converted)
# Bacillus anthracis [53] = assay: microbe, parasite or virus in culture; type: functional; remark: listed apart in the source
# Bacillus anthracis [54] = assay: Antibacterial activity against beta-lactamase Bla1 and Bla2-producing Bacillus anthracis Sterne by broth microdilution method; type: functional
# Bacillus anthracis [55] = assay: microbe, parasite or virus in culture; type: functional; remark: listed apart in the source
structure (smiles),measurement,setting,value
Cc1oc(=O)oc1COC(=O)C1=C([C@H]2CCCO2)S[C@@H]2[C@@H]([C@@H](C)O)C(=O)N12 [FAROPENEM MEDOXOMIL],survival at 10 mg/kg,Bacillus anthracis [1],30%
same,MIC,Bacillus anthracis [2],1 µg/mL
same,survival at 40 mg/kg,Bacillus anthracis [3],20%
same,fraction unbound at 1000 ug/ml,Homo sapiens [4],0.787
same,MIC,Bacillus anthracis [5],0.25 µg/mL
same,MIC,Bacillus anthracis [6],0.12 µg/mL
same,MIC,Bacillus anthracis [7],≤ 0.06 µg/mL
same,survival at 20 mg/kg,Bacillus anthracis [8],60%
same,fT>MIC,Bacillus anthracis [9],51%
same,fT>MIC,[10],10.6%
same,MIC,Bacillus anthracis [11],≤ 0.06 µg/mL
same,MIC,Bacillus anthracis [12],≤ 0.06 µg/mL
same,survival at 80 mg/kg,Bacillus anthracis [13],100%
same,survival at 40 mg/kg,Bacillus anthracis [14],90%
same,MIC,Bacillus anthracis [15],0.12 µg/mL
same,survival at 10 mg/kg,Bacillus anthracis [16],77.8%
same,MIC,Bacillus anthracis [17],0.12 µg/mL
same,MIC,Bacillus anthracis [18],0.25 µg/mL
same,MIC,Bacillus anthracis [19],> 64 µg/mL
same,fT>MIC,Streptococcus pneumoniae [20],13.9%
same,fT>MIC,[21],16.4%
same,MIC,Bacillus anthracis [22],0.25 µg/mL
same,fT>MIC,Bacillus anthracis [23],32%
same,MIC,Streptococcus pneumoniae [24],0.008 µg/mL
same,MIC,Bacillus anthracis [25],≤ 0.06 µg/mL
same,fT>MIC,[26],62%
same,MIC,Bacillus anthracis [27],0.06 µg/mL
same,survival at 80 mg/kg,Bacillus anthracis [28],90%
same,inhibition,Bacillus anthracis [29],Active
same,MIC,Bacillus anthracis [30],0.12 µg/mL
same,survival at 80 mg/kg,Bacillus anthracis [31],22.2%
same,MIC,Bacillus anthracis [32],0.12 µg/mL
same,MIC,Bacillus anthracis [33],0.25 µg/mL
same,MIC,Bacillus anthracis [34],0.12 µg/mL
same,MIC,Bacillus anthracis [35],≤ 0.06 µg/mL
same,fraction unbound at 5 ug/ml,Homo sapiens [36],0.1
same,MIC,Bacillus anthracis [37],0.12 µg/mL
same,fT>MIC,[38],13.4%
same,survival at 40 mg/kg,Bacillus anthracis [39],80%
same,MIC,Bacillus anthracis [40],≤ 0.06 µg/mL
same,fT>MIC,Bacillus anthracis [41],44%
same,survival at 10 mg/kg,Bacillus anthracis [42],0%
same,fraction unbound at 1000 ug/ml,[43],0.82
same,survival at 20 mg/kg,Bacillus anthracis [44],10%
same,survival at 20 mg/kg,Bacillus anthracis [45],80%
same,MIC,Bacillus anthracis [46],0.12 µg/mL
same,MIC,Bacillus anthracis [47],0.12 µg/mL
same,MIC,Bacillus anthracis [48],≤ 0.06 µg/mL
same,MIC,Bacillus anthracis [49],≤ 0.06 µg/mL
same,MIC,Bacillus anthracis [50],0.12 µg/mL
same,MIC,Bacillus anthracis [51],0.12 µg/mL
same,fraction unbound at 5 ug/ml,[52],0.15
same,MIC,Bacillus anthracis [53],0.5 µg/mL
same,MIC,Bacillus anthracis [54],≤ 0.06 µg/mL
same,MIC,Bacillus anthracis [55],0.12 µg/mL
